The results in this text go back to patent US9228121B2, “Process for the co-encapsulation of biocidally active compounds in clay minerals functionalized by nitrogen compounds” (Clariant S.A., priority 2010, dated 2016).

For one data set, the system named is Algae suspension. The data set can be described thus: Algae growth test on leached dry paint film. The following applies: ppm of BKC relatively to the paint, after leaching. Type of data set: cell-based. The method, then:
Test specimens were prepared by application of two paint coats on watercolor paper ([…]) for each biocidal composition. After application, test specimens were dried during 7 days. After drying, coated substrates were cut in 30 mm squares. The test specimens were evaluated after a leaching test where the coated substrates were leached for 8 and 24 hours in 2 L containers of water with a flow rate such that there are 6 changes of the water in a period of 24 hours. Coated substrates were dried to room temperature for 48 hours and then evaluated in terms of microbiological effectiveness. The algicidal effect on dry film was evaluated as described bellow: Inoculums were prepared with a suspension of algae species (Trentepohlia odorata, Chlorella sp and Scenedesmus quadricauda) at concentration of 10^6 cells/mL. Coated substrates were placed on the center of a pre-poured Bold's Basal Medium agar plates. A thin coat of the algae suspension was applied over the plates. Plates were incubated with humidity ≧85%, 25° C. and cycle of 12 hours light and 12 hours darkness. For each biocidal composition the test was done three times. The algae growth on the sample surface was evaluated weekly for 3 weeks using the following scale: […]

Data set [1] is described as follows: Tray test for leaching of biocides from paint film. The following applies: paint with 1000 ppm biocidally active agent, 500 mL distilled water, detection limit 50 ppm. The data set is classed as physicochemical. The procedure: Additionally, the leaching of biocides was evaluated through a tray test in which 50 g of the a paint formulation containing 1000 ppm of biocidally active agent was applied in the bottom of a tray (23.5×38.0 cm) each time and the painting procedure was repeated twice. The film was dried at room temperature for seven days and then 500 mL of distilled water was added to the tray, after 1, 3, 6 and 24 hours a 10 mL sample were taken and analyzed for determination of the biocides.

“C12/C14-alkyldimethyl benzyl ammonium chloride [Dodigen ® 2808]”: the “Effective concentration against algae (ppm relatively to the paint)” value in the data set on Algae suspension was >>2000 ppm of BKC; in the data set on Algae suspension (listed as neat BKC), more than 2000 ppm. Moreover, the “Tray test: biocide leached into water” value in data set [1] (1 hour) amounted to 164 ppm; in data set [1] (3 hours) it was 177 ppm; in data set [1] (6 hours), 190 ppm; in data set [1] (24 hours), 224 ppm.
